For orientation: ED50 means the dose at which the effect has come halfway, by size or by number of responders. As a reminder, the LD50 is the dose expected to kill half of the subjects tested. The low end stands for a more toxic substance, the high end for a less toxic substance.

In one data set the test system is restraint ulcers. The data set is described as follows: inhibition of restraint ulcers in rats (Bonfils et al.), anti-ulcerogenic activity. Type of data set: in vivo, Sprague-Dawley male rats. Particulars: po; rat; p.o. one hour before immobilization; lesions counted 4 hours after immobilization; approximate ED50; read-out: Antiulcerogenic activity ED50 p.o. The text has this: (§1) The compounds of the present invention are active on the gastroenteric system, in particular they are endowed with anti-ulcerogenic and gastric anti-secretory activity and are therefore useful in therapy, for example in the prevention and treatment of peptic, e.g. duodenal, gastric and exophageal, ulcers and to inhibit gastric acid secretion. The compounds of the invention are also useful for reducing the undesirable gastrointestinal sideeffects resulting from systemic administration of antiinflammatory prostaglandin synthetase inhibitors and may be, therefore, used for this purpose in association with them. […] Six Sprague-Dawley male rats (100-120 g) fasted 24 hours were used for the experiment: a square flexible small-mesh were netting was used for the immobilization and 4 hours after the immobilization the rats were sacrificed, their stomachs were removed and the lesions counted under a dissecting microscope. […] Gastric antisecretory activity was evaluated in rats by the pylorus ligature technique. […] Four hours after the ligature the rats were sacrificed, the stomach secretion was collected and centrifuged at 3500 r.p.m. for 10 minutes, and the volume, less sediment, was determined.

Data set [1] can be described thus: approximate acute toxicity (LD50), single administration. The settings on record: in vivo, po; mouse; per os; single administration of increasing doses; measured on the seventh day. The procedure: In view of their high therapeutic index, the compounds of the invention can be used safely in medicine. For example, the approximate acute toxicity (LD50) of the compound 1-phenyl-5-trans-[2-(3-pyridyl)-ethenyl]-1H,7H-pyrazolo [1,5-a]pyrimidine-7-one (FCE 21542) in the mouse, determined by single administration of increasing doses and measured on the seventh day after the day of treatment, is higher than 400 mg/kg per os. Analogous toxicity data have been found for other compounds of the invention. The compounds of the invention can be administered in a variety of dosage forms, e.g. orally, in the form of tablets, capsules, sugar or film coated tablets, liquid solutions or suspensions, rectally, in the form of suppositories, parenterally, e.g. intramuscularly, or by intravenous injection or infusion. The dosage depends on the age, weight, conditions of the patient and administration route; for example the dosage adopted for oral administration to adult humans may range from about 50 to about 200 mg pro dose, from 1 to 5 times daily. The invention includes also pharmaceutical compositions comprising a compound of the invention in association with a pharmaceutically acceptable excipient (which can be a carrier or diluent).

The next data set concerns gastric secretion. The data set is described as follows: inhibition of gastric secretion, pylorus ligature technique (Shay et al.), gastric antisecretory activity. It counts as in vivo, Sprague-Dawley male rats. The settings on record: rat; intraduodenal at the time of pylorus ligature; 4 hours; approximate ED50; read-out: Gastric anti-secretory activity ED50 i.d.
Excerpt: as §1
The amount of the free hydrochloric acid in the gastric juice was determined by titration against 0.01N sodium hydroxide to pH 7.0 on the pH-meter.

The structures appear in SMILES notation. Where only a bound is given, the exact number is not on record here.

For the compound `O=c1cc(/C=C/c2cccnc2)nc2ccn(-c3ccccc3)n12` [FCE 21542, 1-phenyl-5-trans-[2-(3-pyridyl)-ethenyl]-1H,7H-pyrazolo[1,5-a]pyrimidine-7-one], the ED50 with restraint ulcers was roughly 7 mg/kg; in the data set on gastric secretion it was roughly 3.2 mg/kg. For the same compound, in data set [1], the LD50 at 168 h was greater than 400 mg/kg.

For the origin of these results see patent US4490376A, “Substituted ethenyl derivatives of 1H-pyrazolo-[1,5-a]pyrimidine having gastroenteric activity, compositions thereof, and methods of using the same” (Farmitalia Carlo Erba S.p.A, priority 1982, dated 1984).
